The values below come from patent US20210038626A1, “COMPOSITIONS COMPRISING AND METHODS OF USING INHIBITORS OF SODIUM-GLUCOSE COTRANSPORTERS 1 AND 2” (Lexicon Pharmaceuticals, Inc., priority 2011, published 2021).

The test system of data set [1] is human SGLT1 / human SGLT2. To be noted: ratio of human SGLT1 IC50 to human SGLT2 IC50. As to the method:
HEK293 cells were transfected with the human HA-SGLT2-pIRESpuro2 vector and the bulk stable cell line was selected in presence of 0.5 μg/ml of puromycin. Human HA-SGLT2 cells were maintained in DMEM media containing 10% FBS, 1% GPS and 0.5 μg/ml of puromycin.
The HEK293 cells expressing the human HA-SGLT2 were seeded in 384 well plates (30,000 cells/well) in DMEM media containing 10% FBS, 1% GPS and 0.5 μg/ml of puromycin, then incubated overnight at 37 C, 5% CO2. Cells were then washed with uptake buffer (140 mM NaCl, 2 mM KCl, 1 mM CaCl2, 1 mM MgCl2, 10 mM HEPES, 5 mM Tris, 1 mg/ml bovine serum albumin (BSA), pH 7.3). Twenty microliters of uptake buffer with or without testing compounds were added to the cells. […] After washing the cells with uptake buffer, scintillation fluid was added (40 microliters/well) and ^14C-AMG uptake was measured by counting radioactivity using a scintillation coulter (TopCoulter NXT; Packard Instruments).
Cells were then washed with uptake buffer (140 mM NaCl, 2 mM KCl, 1 mM CaCl2, 1 mM MgCl2, 10 mM HEPES, 5 mM Tris, 1 mg/ml bovine serum albumin (BSA), pH 7.3). […] After washing the cells with uptake buffer, scintillation fluid was added (40 microliters/well) and ^14C-AMG uptake was measured by counting radioactivity using a scintillation coulter (TopCoulter NXT; Packard Instruments).

The subject of data set [2] is patients with type 2 diabetes mellitus. The data set is described as follows: Phase 2a clinical trial, liquid oral dosage form once daily for 28 days. The data set is classed as in vivo, human. As to the method: Certain aspects of this invention may be understood with reference to the figures. FIGS. 1-10 show results obtained from a randomized, double-blind, placebo controlled Phase 2a clinical trial, wherein 150 mg and 300 mg doses of (2S,3R,4R,5S,6R)-2-(4-chloro-3-(4-ethoxybenzyl)phenyl)-6-(methylthio)tetrahydro-2H-pyran-3,4,5-triol were orally administered in solution once daily to patients with type 2 diabetes mellitus. FIG. 11 provides results obtained from a Phase 1 clinical trial, wherein both solid and liquid oral dosage forms of the compound were administered to patients with type 2 diabetes mellitus.
This invention is based, in part, on findings obtained from a randomized, double-blind, placebo controlled Phase 2a clinical trial, wherein 150 mg/day and 300 mg/day doses of a compound of the invention were orally administered in a liquid to patients with type 2 diabetes mellitus. The compound was (2S,3R,4R,5S,6R)-2-(4-chloro-3-(4-ethoxybenzyl)phenyl)-6-(methylthio)tetrahydro-2H-pyran-3,4,5-triol, which has the structure:
Patients (n=36) with type 2 diabetes mellitus received one of two oral doses of (2S,3R,4R,5S,6R)-2-(4-chloro-3-(4-ethoxybenzyl)phenyl)-6-(methylthio)tetrahydro-2H-pyran-3,4,5-triol, given as 150 mg or 300 mg once daily, or matching placebo, for 28 days in solution.
In this study, patients on metformin were taken off of the drug 16 days prior to day 0, the day dosing first began.

Data set [3] shares this test system. Kind of data set: Phase 1 clinical trial comparing solid and liquid oral dosage forms, single 300 mg dose, crossover. The data set is classed as in vivo, human. To be noted: single doses. The method, then: This invention is further based on findings obtained from a randomized, double-blind, placebo controlled Phase 1 clinical trial that compared liquid and solid dosage forms of the compound.
Patients (n=12) with type 2 diabetes mellitus received one of three oral formulations of 300 mg of (2S,3R,4R,5S,6R)-2-(4-chloro-3-(4-ethoxybenzyl)phenyl)-6-(methylthio)tetrahydro-2H-pyran-3,4,5-triol before breakfast: as two 150 mg tablets, six 50 mg tablets, or 30 mL of 10 mg/mL solution in a randomized sequence implementing a Latin Square crossover design, with a 5-day washout between doses.
Changes in urinary glucose excretion, fasting plasma glucose (FPG), insulin, postprandial glucose (PPG), peptide YY (PYY), and glucagon-like peptide-1(GLP-1) were measured at days −1, 1, 6, and 11.

The mark [4] stands for this setting: 150 mg and 300 mg once daily, 28 days.

Take `CCOc1ccc(Cc2cc([C@@H]3O[C@H](SC)[C@@H](O)[C@H](O)[C@H]3O)ccc2Cl)cc1` [(2S,3R,4R,5S,6R)-2-(4-chloro-3-(4-ethoxybenzyl)phenyl)-6-(methylthio)tetrahydro-2H-pyran-3,4,5-triol]: in data set [1], the “SGLT1 IC50: SGLT2 IC50 ratio” value is “about 20”. The “glucosuria compared to placebo” value in data set [2] (150 mg and 300 mg once daily, 28-day dosing period, preliminary data) was “significant and sustained glucosuria”. In data set [2] (setting [4]), the adverse events result is “generally mild and evenly distributed across all dose groups, including placebo”; the dose-limiting toxicities result was “no evidence of dose-limiting toxicities”. Also, in data set [2] (150 mg/day and 300 mg/day treatment groups vs placebo), the “glucose tolerance (FIG. 2)” value is “greater glucose tolerance than those in the placebo group”. Moreover, the “plasma glucose levels (FIG. 1)” value in data set [2] (150 mg/day and 300 mg/day treatment groups, upon treatment) was “rapid, statistically significant decrease”. Besides, in data set [2] (150 mg/day and 300 mg/day vs placebo), the “post-prandial glucose levels (FIG. 5)” value is given as “rapid, statistically significant decrease”. In data set [2] (150 mg/day and 300 mg/day vs placebo, day 27), the “insulin sensitivity, homeostatic model assessment (HOMA) (FIG. 4)” value is given as “improved insulin sensitivity compared to placebo”. Besides, the “mean diastolic and systolic blood pressures (FIGS. 8 and 9)” value in data set [2] (150 mg/day and 300 mg/day, after 28 days of dosing, vs placebo) was “decreased mean diastolic and systolic blood pressures”. The “mean arterial pressures (FIG. 10)” value in data set [2] (150 mg/day and 300 mg/day, day 28 vs baseline) is listed as “also decreased”. Also, the “mean HbA1c levels (FIG. 7)” value in data set [2] (150 mg/day and 300 mg/day, four weeks) is “marked decrease”. In data set [3], the “FPG and PPG levels” value is given as “markedly improved”; the “GLP-1 and PYY levels” value is “increased”.
